The experiment has as its target T1, serotonin (5-HT) reuptake (Rattus norvegicus, UniProt P31652).
T1 construct: synaptosomes are freshly isolated from areas of the rat brain; from tissue; host or cells: rat brain synaptosomes (P2 fraction)
Nature of the experiment: Inhibition of serotonin (5HT) reuptake in synaptosomes from rat brain. It is filed as biochemical. As to conditions: test concentration of 10 μM; read-out: 5-HT (inhibition of reuptake of serotonin, % inhibition). An outline of the steps:
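Compounds screened at 10 μM and reported as percent inhibition of serotonin uptake. Uptake measured in a freshly prepared P2 synaptosomal fraction from rat brain.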

Each structure is given as a SMILES string.

T1 sequence (P31652 whole entry): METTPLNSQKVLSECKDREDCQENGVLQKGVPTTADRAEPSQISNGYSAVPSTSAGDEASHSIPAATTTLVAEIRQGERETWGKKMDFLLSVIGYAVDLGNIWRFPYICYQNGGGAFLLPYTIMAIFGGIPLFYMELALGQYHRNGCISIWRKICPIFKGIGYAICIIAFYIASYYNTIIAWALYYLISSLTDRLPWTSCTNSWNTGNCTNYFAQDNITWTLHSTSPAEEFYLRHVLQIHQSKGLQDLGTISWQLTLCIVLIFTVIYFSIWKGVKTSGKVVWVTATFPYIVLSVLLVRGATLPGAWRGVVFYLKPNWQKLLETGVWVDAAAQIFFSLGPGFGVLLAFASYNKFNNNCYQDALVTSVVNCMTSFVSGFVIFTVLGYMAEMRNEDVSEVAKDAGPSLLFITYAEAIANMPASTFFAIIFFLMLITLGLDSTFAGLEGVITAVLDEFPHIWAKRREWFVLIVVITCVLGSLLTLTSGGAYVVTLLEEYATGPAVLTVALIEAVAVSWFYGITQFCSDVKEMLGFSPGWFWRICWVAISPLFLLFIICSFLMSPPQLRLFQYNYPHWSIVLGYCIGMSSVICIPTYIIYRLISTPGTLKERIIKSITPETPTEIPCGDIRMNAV

For the compound `COc1cc(C)c(S(=O)(=O)N2CCCC(OCC(=O)NC3CCC(C(c4cccs4)N(C)C)CC3)C2)c(C)c1C` (stereo not shown) [Example 144, N-(4-((dimethylamino)(thiophen-2-yl)methyl)cyclohexyl)-2-(1-(4-methoxy-2,3,6-trimethylphenylsulfonyl)piperidin-3-yloxy)acetamide], the inhibition at 10 µM was found to be 87%.
Turning to `COc1cc(C)c(S(=O)(=O)N2CCCC(OCC(=O)NCC3CCC(C(c4cccc(F)c4)N(C)C)CC3)C2)c(C)c1C` (stereo not shown) [Example 145, N-((4-((dimethylamino)(3-fluorophenyl)methyl)cyclohexyl)methyl)-2-(1-(4-methoxy-2,3,6-trimethylphenylsulfonyl)piperidin-3-yloxy)acetamide], the inhibition at 10 µM was 91%.
Take `COc1cc(C)c(S(=O)(=O)N2CCC(CCOCC(=O)NCC3CCC(C(c4ccccc4)N(C)C)CC3)CC2)c(C)c1C` (stereo not shown) [Example 146, N-((4-((dimethylamino)(phenyl)methyl)cyclohexyl)methyl)-2-(2-(1-(4-methoxy-2,3,6-trimethylphenylsulfonyl)piperidin-4-yl)ethoxy)acetamide]: the inhibition at 10 µM worked out at 95%.
For the compound `CN(C)C(c1cccc(F)c1)C1CCC(CCNC(=O)COCC2CCCCN2S(=O)(=O)c2ccc(Cl)c(Cl)c2)CC1` (stereo not shown) [Example 147, 2-((1-(3,4-dichlorophenylsulfonyl)piperidin-2-yl)methoxy)-N-(2-(4-((dimethylamino)(3-fluorophenyl)methyl)cyclohexyl)ethyl)acetamide], the inhibition at 10 µM turned out to be 96%.
In the case of `COc1cc(C)c(S(=O)(=O)N(CCOCC(=O)NCC2CCC(C(c3ccccc3)N(C)C)CC2)Cc2ccccc2)c(C)c1` (stereo not shown) [Example 148, 2-(2-(N-benzyl-4-methoxy-2,6-dimethylphenylsulfonamido)ethoxy)-N-((4-((dimethylamino)(phenyl)methyl)cyclohexyl)methyl)acetamide], the inhibition at 10 µM came to 95%.
The value for `COc1cc(C)c(S(=O)(=O)N(CCOCC(=O)NCCC2CCC(C(c3cccs3)N(C)C)CC2)Cc2ccccc2)c(C)c1` (stereo not shown) [Example 149, 2-(2-(N-benzyl-4-methoxy-2,6-dimethylphenylsulfonamido)ethoxy)-N-(2-(4-((dimethylamino) (thiophen-2-yl)methyl)cyclohexyl)ethyl)acetamide] was 91%; that for `COc1ccc(S(=O)(=O)N2CCCCC2COCC(=O)NCC2CCC(C(c3ccccc3)N(C)C)CC2)cc1OC` (stereo not shown) [Example 150, 2-((1-(3,4-Dimethoxyphenylsulfonyl)piperidin-2-yl)methoxy)-N-((4-((dimethylamino)(phenyl)methyl)cyclohexyl)methyl)acetamide] was 94%; that for `COc1ccc(S(=O)(=O)N2CCCCC2COCC(=O)NCC2CCC(C(c3cccc(F)c3)N(C)C)CC2)c(OC)c1` (stereo not shown) [Example 151, 2-((1-(2,4-dimethoxyphenylsulfonyl)piperidin-2-yl)methoxy)-N-((4-((dimethylamino)(3-fluorophenyl)methyl)cyclohexyl)methyl)acetamide] was 87%.
The value for `CN(C)C(c1cccs1)C1CCC(NC(=O)COCCN(C)S(=O)(=O)c2cccc(C(F)(F)F)c2)CC1` (stereo not shown) [Example 152, N-(4-((dimethylamino)(thiophen-2-yl)methyl)cyclohexyl)-2-(2-(N-methyl-3-(trifluoromethyl)phenylsulfonamido)ethoxy)acetamide] was 87%.
With `COc1ccc(S(=O)(=O)N2CCC(OCC(=O)NC3CCC(C(c4cccs4)N(C)C)CC3)C2)cc1OC` (stereo not shown) [Example 155, 2-(1-(3,4-dimethoxyphenylsulfonyl)pyrrolidin-3-yloxy)-N-(4-((dimethylamino)(thiophen-2-yl)methyl)cyclohexyl)acetamide], the inhibition at 10 µM was determined as 87%.
As for `Cc1ccc(S(=O)(=O)N2CCC(OCC(=O)NC3CCC(C(c4cccs4)N(C)C)CC3)C2)cc1` (stereo not shown) [Example 156, N-(4-((dimethylamino)(thiophen-2-yl)methyl)cyclohexyl)-2-(1-tosylpyrrolidin-3-yloxy)acetamide], the inhibition at 10 µM was found to be 87%.
The value for `Cc1ccc(S(=O)(=O)N(C)CCOCC(=O)NCC2CCC(C(c3ccccc3)N(C)C)CC2)cc1` (stereo not shown) [Example 157, N-((4-((dimethylamino) (phenyl)methyl)cyclohexyl)methyl)-2-(2-(N,4-dimethylphenylsulfonamido)ethoxy)acetamide] was 88%; that for `CN(C)C(c1cccc(F)c1)C1CCC(CNC(=O)COCCN(C)S(=O)(=O)c2ccc(Cl)cc2)CC1` (stereo not shown) [Example 158, 2-(2-(4-chloro-N-methylphenylsulfonamido)ethoxy)-N-((4-((dimethylamino)(3-fluorophenyl)methyl)cyclohexyl)methyl)acetamide] was 91%; that for `CN(C)C(c1cccs1)C1CCC(NC(=O)COCCN(Cc2ccccc2)S(=O)(=O)c2ccccc2)CC1` (stereo not shown) [Example 161, 2-(2-(N-benzylphenylsulfonamido)ethoxy)-N-(4-((dimethylamino)(thiophen-2-yl)methyl)cyclohexyl)acetamide] was 94%.
To `COc1ccc(S(=O)(=O)N2CCCC2COCC(=O)NC2CCC(C(c3cccs3)N(C)C)CC2)cc1` (stereo not shown) [Example 162, N-(4-((dimethylamino)(thiophen-2-yl)methyl)cyclohexyl)-2-((1-(4-methoxyphenylsulfonyl)pyrrolidin-2-yl)methoxy)acetamide] belongs 81%; to `COc1ccc(S(=O)(=O)N2Cc3ccccc3CC2COCC(=O)NCC2CCC(C(c3cccc(F)c3)N(C)C)CC2)cc1` (stereo not shown) [Example 163, N-((4-((dimethylamino)(3-fluorophenyl)methyl)cyclohexyl)methyl)-2-((2-(4-methoxyphenylsulfonyl)-1,2,3,4-tetrahydroisoquinolin-3-yl)methoxy)acetamide], 96%; to `CN(C)C(c1cccc(F)c1)C1CCC(CNC(=O)COC2CCCCC2N(C)S(=O)(=O)c2ccc(Cl)c(Cl)c2)CC1` (stereo not shown) [Example 164, 2-(2-(3,4-dichloro-N-methylphenylsulfonamido)cyclohexyloxy)-N-((4-((dimethylamino)(3-fluorophenyl)methyl)cyclohexyl)methyl)acetamide], 90%.
To `COc1cc(C)c(S(=O)(=O)N2CCC(OCC(=O)NC3CCC(C(c4ccccc4)N(C)C)CC3)C2)c(C)c1` (stereo not shown) [Example 165, N-(4-((dimethylamino)(phenyl)methyl)cyclohexyl)-2-(1-(4-methoxy-2,6-dimethylphenylsulfonyl)pyrrolidin-3-yloxy)acetamide] belongs 20%; to `Cc1ccc(S(=O)(=O)N2CCC(OCC(=O)NC3CCC(C(c4cccc(F)c4)N(C)C)CC3)C2)cc1` (stereo not shown) [Example 167, N-(4-((dimethylamino)(3-fluorophenyl)methyl)cyclohexyl)-2-(1-tosylpyrrolidin-3-yloxy)acetamide], 86%.
For the compound `COc1ccc(S(=O)(=O)N(C)CCOCC(=O)NCC2CCC(C(c3ccccc3)N(C)C)CC2)cc1OC` (stereo not shown) [Example 169, 2-(2-(3,4-dimethoxy-N-methylphenylsulfonamido)ethoxy)-N-((4-((dimethylamino)(phenyl)methyl)cyclohexyl)methyl)acetamide], the inhibition at 10 µM was 94%.
For the compound `CN(C)C(c1cccc(F)c1)C1CCC(CNC(=O)COC2CCN(S(=O)(=O)c3cccc(C(F)(F)F)c3)C2)CC1` (stereo not shown) [Example 170, N-((4-((dimethylamino)(3-fluorophenyl)methyl)cyclohexyl)methyl)-2-(1-(3-(trifluoromethyl)phenylsulfonyl)pyrrolidin-3-yloxy)acetamide], the inhibition at 10 µM turned out to be 89%.
Consider `CN(C)C(c1cccc(F)c1)C1CCC(NC(=O)COCCN(C)S(=O)(=O)c2c(Cl)cccc2Cl)CC1` (stereo not shown) [Example 171, 2-(2-(2,6-dichloro-N-methylphenylsulfonamido)ethoxy)-N-(4-((dimethylamino)(3-fluorophenyl)methyl)cyclohexyl)acetamide], for which the inhibition at 10 µM is 78%.
The value for `CN(C)C(c1cccc(F)c1)C1CCC(NC(=O)COC2CCN(S(=O)(=O)c3ccc(F)cc3)C2)CC1` (stereo not shown) [Example 172, N-(4-((dimethylamino)(3-fluorophenyl)methyl)cyclohexyl)-2-(1-(4-fluorophenylsulfonyl)pyrrolidin-3-yloxy)acetamide] was 79%.
To `COc1cc(C)c(S(=O)(=O)N2CCC(OCC(=O)NCC3CCC(C(c4ccccc4)N(C)C)CC3)C2)c(C)c1` (stereo not shown) [Example 173, N-((4-((dimethylamino)(phenyl)methyl)cyclohexyl)methyl)-2-(1-(4-methoxy-2,6-dimethylphenylsulfonyl)pyrrolidin-3-yloxy)acetamide] belongs 95%; to `CN(C)C(c1cccc(F)c1)C1CCC(CCNC(=O)COCCN(C)S(=O)(=O)c2c(Cl)cc(Cl)cc2Cl)CC1` (stereo not shown) [Example 174, N-(2-(4-((dimethylamino)(3-fluorophenyl)methyl)cyclohexyl)ethyl)-2-(2-(2,4,6-trichloro-N-methylphenylsulfonamido)ethoxy)acetamide], 97%; to `CN(C)C(c1cccc(F)c1)C1CCC(NC(=O)COCCN(Cc2ccccc2)S(=O)(=O)c2ccccc2)CC1` (stereo not shown) [Example 175, 2-(2-(N-benzylphenylsulfonamido)ethoxy)-N-(4-((dimethylamino)(3-fluorophenyl)methyl)cyclohexyl)acetamide], 97%.
For the compound `CCN(CCOCC(=O)NC1CCC(C(c2cccc(F)c2)N(C)C)CC1)S(=O)(=O)c1c(C)cc(OC)c(C)c1C` (stereo not shown) [Example 176, N-(4-((dimethylamino)(3-fluorophenyl)methyl)cyclohexyl)-2-(2-(N-ethyl-4-methoxy-2,3,6-trimethylphenylsulfonamido)ethoxy)acetamide], the inhibition at 10 µM was found to be 90%.
On to `COc1cc(C)c(S(=O)(=O)N2CCC(OCC(=O)NCCC3CCC(C(c4cccs4)N(C)C)CC3)CC2)c(C)c1C` (stereo not shown) [Example 177, N-(2-(4-((dimethylamino)(thiophen-2-yl)methyl)cyclohexyl)ethyl)-2-(1-(4-methoxy-2,3,6-trimethylphenylsulfonyl)piperidin-4-yloxy)acetamide], for which the inhibition at 10 µM was 93%.
